The target in the assay is p300 HAT domain (residues 1287-1666) (Homo sapiens (Human), UniProt Q09472). The assay is described as follows: p300 HAT SPA assay (scintillation proximity assay, acetylation of biotinylated H3(1-21) peptide). Format: biochemical. Particulars: average of at least 2 replicate titrations. The procedure: In a typical experiment the p300 HAT inhibitory activity of the compounds described herein was determined in accordance with the following experimental method.
The expressed protein was purified by Ni2+ affinity, followed by anion exchange chromatography. Appropriate fractions were pooled and buffer exchanged into 20 mM Hepes pH 7.5, 150 mM NaCl, and 1 mM TCEP.
35 μL of the reaction volume was transferred to a 384-well streptavidin FlashPlate (PerkinElmer) using a Bravo liquid handler (Velocity 11) and incubated for 1.5 hr at RT. […] Data were analyzed in Genedata to determine inhibitor IC50 values.

pIC50: −log10 of the molar value. Where only a bound is given, the exact number is not on record here.

p300 HAT domain (residues 1287-1666), sequence (Q09472 1287-1666): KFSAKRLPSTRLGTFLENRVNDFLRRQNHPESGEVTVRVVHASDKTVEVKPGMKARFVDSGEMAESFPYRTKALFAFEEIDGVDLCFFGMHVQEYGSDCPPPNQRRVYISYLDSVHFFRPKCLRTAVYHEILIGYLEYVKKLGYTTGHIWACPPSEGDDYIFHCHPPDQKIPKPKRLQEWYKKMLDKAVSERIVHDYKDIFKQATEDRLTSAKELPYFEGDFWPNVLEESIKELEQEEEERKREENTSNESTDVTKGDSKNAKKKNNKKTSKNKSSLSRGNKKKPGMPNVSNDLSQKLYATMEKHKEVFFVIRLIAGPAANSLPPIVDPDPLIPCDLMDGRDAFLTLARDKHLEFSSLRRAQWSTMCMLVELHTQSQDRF

A word on the pIC50: it is the IC50 on a negative log10 scale, so that one unit is a factor of ten. A lower pIC50 goes with a large IC50. For `COc1cccc(C(NCCc2ccc(C#N)cc2)C(=O)Nc2ccc(-c3cnn(C)c3)cn2)c1` (single isomer, unassigned) [70 Isomer 2], the pIC50 is 6.61.

For `CN1CCN(c2ccc(NC(=O)C(NCCc3ccc(C#N)cc3)c3ccccc3)nc2)CCC1=O` (single isomer, unassigned) [71 Isomer 1], the pIC50 is 7.06. Regarding `CN1CCN(c2ccc(NC(=O)C(NCCc3ccc(C#N)cc3)c3ccccc3)nc2)CCC1=O` (single isomer, unassigned) [71 Isomer 2], the negative-log IC50 (pIC50) was less than 5.70. For the compound `Cc1ncn(-c2ccc(NC(=O)C(NCCc3ccc(C#N)cc3)c3ccccc3)nc2)n1` (single isomer, unassigned) [73 Isomer 1], the pIC50 was less than 5.70. The compound `Cc1ncn(-c2ccc(NC(=O)C(NCCc3ccc(C#N)cc3)c3ccccc3)nc2)n1` (single isomer, unassigned) [73 Isomer 2] showed a pIC50 of 6.71. For the compound `CCN1CCN(c2ccc(NC(=O)C(NCCc3ccc(C#N)cc3)c3ccccc3)nc2)C1=O` (single isomer, unassigned) [76 Isomer 1], the pIC50 was 7.06. The same measure for `CCN1CCN(c2ccc(NC(=O)C(NCCc3ccc(C#N)cc3)c3ccccc3)nc2)C1=O` (single isomer, unassigned) [76 Isomer 2]: less than 5.70; for `N#Cc1ccc(CCNC(C(=O)Nc2ccc(N3CCC(F)(F)C3)cn2)c2ccccc2)cc1` (single isomer, unassigned) [77 Isomer 1]: 7.40; for `N#Cc1ccc(CCNC(C(=O)Nc2ccc(N3CCC(F)(F)C3)cn2)c2ccccc2)cc1` (single isomer, unassigned) [77 Isomer 2]: 5.70. The same measure for `Cc1cn(-c2ccc(NC(=O)C(NCCc3ccc(C#N)cc3)c3ccccc3)nc2)nn1` (single isomer, unassigned) [78 Isomer 1]: 6.53. In the case of `Cc1cn(-c2ccc(NC(=O)C(NCCc3ccc(C#N)cc3)c3ccccc3)nc2)nn1` (single isomer, unassigned) [78 Isomer 2], the pIC50 is less than 5.70. The same measure for `Cn1cc(-c2ccc(NC(=O)C(NCCc3ccc(C#N)cc3)c3cccc(Cl)c3)nc2)cn1` (single isomer, unassigned) [79 Isomer 1]: less than 5.70; for `Cn1cc(-c2ccc(NC(=O)C(NCCc3ccc(C#N)cc3)c3cccc(Cl)c3)nc2)cn1` (single isomer, unassigned) [79 Isomer 2]: 7.01; for `N#Cc1ccc(CCNC(C(=O)Nc2ccc(N3CC4(COC4)C3)cn2)c2ccccc2)cc1` (single isomer, unassigned) [80 Isomer 1]: 6.70. In the case of `N#Cc1ccc(CCNC(C(=O)Nc2ccc(N3CC4(COC4)C3)cn2)c2ccccc2)cc1` (single isomer, unassigned) [80 Isomer 2] it was less than 5.70; in that of `N#Cc1ccc(CCNC(C(=O)Nc2ccc(N3CCOCC3)cn2)c2ccccc2)cc1` (single isomer, unassigned) [81 Isomer 1], 6.86; in that of `N#Cc1ccc(CCNC(C(=O)Nc2ccc(N3CCOCC3)cn2)c2ccccc2)cc1` (single isomer, unassigned) [81 Isomer 2], less than 5.70. `CC(CNC(C(=O)Nc1ccc(-c2cnn(C)c2)cc1)c1ccccc1)c1ccc(C#N)cc1` (single isomer, unassigned) [82 Isomer 1] had a pIC50 of less than 5.30. On to `CC(CNC(C(=O)Nc1ccc(-c2cnn(C)c2)cc1)c1ccccc1)c1ccc(C#N)cc1` (single isomer, unassigned) [82 Isomer 2], for which the pIC50 is less than 5.30. The same measure for `CC(CNC(C(=O)Nc1ccc(-c2cnn(C)c2)cc1)c1ccccc1)c1ccc(C#N)cc1` (single isomer, unassigned) [82 Isomer 3]: 6.22; for `CC(CNC(C(=O)Nc1ccc(-c2cnn(CC(F)(F)F)c2)cn1)c1ccccc1)c1ccc(C#N)cc1` (single isomer, unassigned) [83 Isomer 1]: less than 5.70; for `CC(CNC(C(=O)Nc1ccc(-c2cnn(CC(F)(F)F)c2)cn1)c1ccccc1)c1ccc(C#N)cc1` (single isomer, unassigned) [83 Isomer 2]: less than 5.70. In turn, `CC(CNC(C(=O)Nc1ccc(-c2cnn(CC(F)(F)F)c2)cn1)c1ccccc1)c1ccc(C#N)cc1` (single isomer, unassigned) [83 Isomer 3] gave a pIC50 of 6.30. In the case of `CC(CNC(C(=O)Nc1ccc(-c2cnn(CC(F)(F)F)c2)cn1)c1ccccc1)c1ccc(C#N)cc1` (single isomer, unassigned) [83 Isomer 4] it was 7.69; in that of `C[C@H](CNC(C(=O)Nc1ccc(-c2cnn(CC(=O)N(C)C)c2)cn1)c1ccccc1)c1ccc(C#N)cc1` (single isomer, unassigned) [84 Isomer 1], 6.40; in that of `Cn1cc(-c2ccc(NC(=O)C(NCCc3ccc(C#N)c(F)c3)c3ccccc3)nc2)cn1` (single isomer, unassigned) [85 Isomer 1], 7.50. The compound `Cn1cc(-c2ccc(NC(=O)C(NCCc3ccc(C#N)c(F)c3)c3ccccc3)nc2)cn1` (single isomer, unassigned) [85 Isomer 2] showed a pIC50 of 6.33. `COc1ccccc1C(NCCc1ccc(C#N)cc1)C(=O)Nc1ccc(-c2cnn(C)c2)cn1` (single isomer, unassigned) [87 Isomer 1] had a pIC50 of 6.58. `COc1ccccc1C(NCCc1ccc(C#N)cc1)C(=O)Nc1ccc(-c2cnn(C)c2)cn1` (single isomer, unassigned) [87 Isomer 2] had a pIC50 of less than 5.70. `Cn1cc(-c2ccc(NC(=O)C(NCCc3ccc(C#N)cc3)c3ccccc3Cl)nc2)cn1` (single isomer, unassigned) [88 Isomer 1] had a pIC50 of 7.18.

For `Cn1cc(-c2ccc(NC(=O)C(NCCc3ccc(C#N)cc3)c3ccccc3Cl)nc2)cn1` (single isomer, unassigned) [88 Isomer 2], the pIC50 was less than 5.70. Take `Cn1cc(-c2ccc(NC(=O)C(NCCc3ccc(C#N)cc3)C3CCCCC3)nc2)cn1` (single isomer, unassigned) [89 Isomer 1]: the pIC50 is less than 5.70. As for `Cn1cc(-c2ccc(NC(=O)C(NCCc3ccc(C#N)cc3)C3CCCCC3)nc2)cn1` (single isomer, unassigned) [89 Isomer 2], the pIC50 is 5.84. With `CC(CNC(C(=O)Nc1ccc(-c2cnn(C)c2)cn1)c1ccccc1)c1ccc(C#N)cc1F` (single isomer, unassigned) [90 Isomer 1], the pIC50 was 6.68. Compound `CC(CNC(C(=O)Nc1ccc(-c2cnn(C)c2)cn1)c1ccccc1)c1ccc(C#N)cc1F` (single isomer, unassigned) [90 Isomer 3] had a pIC50 of 5.80. Consider `CC(CNC(C(=O)Nc1ccc(-c2cnn(C)c2)cn1)c1ccccc1)c1ccc(C#N)cc1F` (single isomer, unassigned) [90 Isomer 4], for which the pIC50 was less than 5.70. `CC(CNC(C(=O)Nc1ccc(-c2cnn(C)c2)cn1)c1ccccc1)c1ccc(C#N)c(F)c1` (single isomer, unassigned) [91 Isomer 1] had a pIC50 of 6.33. `CC(CNC(C(=O)Nc1ccc(-c2cnn(C)c2)cn1)c1ccccc1)c1ccc(C#N)c(F)c1` (single isomer, unassigned) [91 Isomer 3] gave a pIC50 of 5.99. Compared with the last compound, the pIC50 is 0.34 log units lower. Consider `CC(CNC(C(=O)Nc1ccc(-c2cnn(C)c2)cn1)c1ccccc1)c1ccc(C#N)c(F)c1` (single isomer, unassigned) [91 Isomer 4], for which the pIC50 is 6.40. The same measure for `CO[C@@H]1CCN(c2ccc(NC(=O)C(NCC(C)c3ccc(C#N)cc3)c3ccccc3)nc2)C1` (single isomer, unassigned) [92 Isomer 1]: 6.06; for `CO[C@@H]1CCN(c2ccc(NC(=O)C(NCC(C)c3ccc(C#N)cc3)c3ccccc3)nc2)C1` (single isomer, unassigned) [92 Isomer 2]: 7.94; for `CO[C@@H]1CCN(c2ccc(NC(=O)C(NCC(C)c3ccc(C#N)cc3)c3ccccc3)nc2)C1` (single isomer, unassigned) [92 Isomer 3]: 6.22. The compound `CO[C@@H]1CCN(c2ccc(NC(=O)C(NCC(C)c3ccc(C#N)cc3)c3ccccc3)nc2)C1` (single isomer, unassigned) [92 Isomer 4] gave a pIC50 of less than 5.70. `CO[C@H]1CCN(c2ccc(NC(=O)C(NCC(C)c3ccc(C#N)cc3)c3ccccc3)nc2)C1` (single isomer, unassigned) [93 Isomer 1] had a pIC50 of 6.39. `CO[C@H]1CCN(c2ccc(NC(=O)C(NCC(C)c3ccc(C#N)cc3)c3ccccc3)nc2)C1` (single isomer, unassigned) [93 Isomer 2] had a pIC50 of less than 5.70.

As for `CO[C@H]1CCN(c2ccc(NC(=O)C(NCC(C)c3ccc(C#N)cc3)c3ccccc3)nc2)C1` (single isomer, unassigned) [93 Isomer 3], the pIC50 was 7.44. The same measure for `CO[C@H]1CCN(c2ccc(NC(=O)C(NCC(C)c3ccc(C#N)cc3)c3ccccc3)nc2)C1` (single isomer, unassigned) [93 Isomer 4]: less than 5.70; for `Cn1cc(-c2ccc(NC(=O)C(NCCc3ccc(Cl)cc3C#N)c3ccccc3)nc2)cn1` (single isomer, unassigned) [94 Isomer 1]: 7.07. `Cn1cc(-c2ccc(NC(=O)C(NCCc3ccc(Cl)cc3C#N)c3ccccc3)nc2)cn1` (single isomer, unassigned) [94 Isomer 2] gave a pIC50 of less than 5.70.

In the case of `Cn1cc(-c2ccc(NC(=O)C(NCCc3ccc(C#N)cc3C(F)(F)F)c3ccccc3)nc2)cn1` (single isomer, unassigned) [95 Isomer 1], the pIC50 was 7.38. With `Cn1cc(-c2ccc(NC(=O)C(NCCc3ccc(C#N)cc3C(F)(F)F)c3ccccc3)nc2)cn1` (single isomer, unassigned) [95 Isomer 2], the pIC50 was 6.00. In the case of `N#Cc1ccc(CCNC(C(=O)Nc2ccc(N3CCC4(COC4)C3)cn2)c2ccccc2)cc1` (single isomer, unassigned) [96 Isomer 1], the pIC50 was 7.17.

The record behind these values is patent US11274090B2, “P300/CBP HAT inhibitors” (Constellation Pharmaceuticals, Inc., priority 2018, dated 2022).
